# Experimental data: US20230172203A1, “PLANT METABOLISM PROMOTING COMPOSITIONS AND METHODS OF USE” (Panoptic Ag Solutions LLC, priority 2021, published 2023)
# Experiments:
# [1] = tested on: Whale variety spinach plant seedlings; experiment: 2021 Greenhouse Spinach Trial; type: in vivo
# Text: (§1) The base formulation used in greenhouse trials was an aqueous solution of L-theanine (20% by weight). The base formulation was further diluted with water as detailed for each trial. Whale variety spinach plant seedlings (n=6/treatment) were planted in commercial potting soil and then were transplanted to 3-gallon pots. L-theanine treatment was applied at the equivalent of 1 pint in 100 gallons of water (125 ppm) and sprayed till runoff. Two treatment applications were made to the plants approximately 14 days apart.
# [2] = tested on: corn; experiment: 2021 York, NE Corn Replicated Field Trial; type: in vivo; details: in-furrow application 8 fl. oz. per acre; V5 growth stage; vs untreated plant
# Text: FIG. 1 is a photo from a 2021 York, NE Corn Trial. An aqueous solution of L-theanine was applied to the corn as an in-furrow application at a rate of 8 fl. oz. per acre. The pictures from the trial were taken at the V5 (5th Leaf) growth stage.
# [3] = tested on: Soybean (Glycine max); experiment: 2021 Replicated Nebraska Soybean Field Trial; type: in vivo
# Text: Soybean seeds (Glycine max) were planted at a rate of 150,000 seeds per acre. The treated plot size was 5 ft×40 ft and this was replicated 4 times. A 20% aqueous L-theanine solution was applied to the foliage at 8 fl. oz./acre at the R2 (full flowering) growth stage. The trial was fertilized and maintained under grower standard practices.
# [4] = tested on: Wheat (Triticum aestivum); experiment: 2022 Replicated South Dakota Spring Wheat Field Trial; type: in vivo
# Text: Wheat seed (Triticum aestivum) was planted at a rate of 90 lbs/acre. The treated plot size was 5 ft×40 ft and this was replicated 4 times. A 20% L-theanine solution was applied at 8 fl. oz./acre to the foliage of the wheat approximately 40 days after emergence. The trial was fertilized and maintained under grower standard practices.
# [5] = tested on: Mustard plants; experiment: 2021 Greenhouse Mustard Trial (soil application); type: in vivo
# Procedure: (§2) The base formulation used in greenhouse trials was an aqueous solution of L-theanine (20% by weight). The base formulation was further diluted with water as detailed for each trial. Mustard seeds (n=28/treatment) were planted in commercial potting soil in 1-gallon pots. Approximately 14 days after seedling emergence, an aqueous L-theanine solution was mixed into water at a rate of 0.2 mL per 1000 mL water. The resulting solution was applied to the soil of the pots at a rate of 50 mL per plant. Plants were grown for an additional 14 days then harvested.
# [6] = tested on: Soybean plants; experiment: 2021 Greenhouse Soybean Trial (soil application); type: in vivo
# Procedure: as §2, with “Soybean” for “Mustard”
# [7] = tested on: Zinnia plants; experiment: 2021 Zinnia Greenhouse Trial; type: in vivo
# Text: as §1, with “trial. Zinna seeds” for “trial. Whale variety spinach plant seedlings”, “then” for “then were”, “transplanted into” for “transplanted to”, “Two treatments” for “Two treatment applications”
# [8] = tested on: tea plants; details: exogenous application; background statement; cited from earlier work
# [9] = tested on: Butterbaby variety squash plant seedlings; experiment: 2021 Greenhouse Squash Trial; type: in vivo
# Text: as §1, with “Butterbaby” for “Whale”, “squash” for “spinach”, “(n=4/treatment)” for “(n=6/treatment)”
# [10] = tested on: Mature cherry trees; experiment: 2022 Replicated California Cherry Trial; type: in vivo
# Procedure: Mature cherry trees (n=6) were treated with a 10% aqueous L-theanine solution at 1 pint per acre with application timings at Early Bloom, Petal Fall, and Early Fruit set. The trial was maintained at grower standard fertilizer and pest management throughout the course of the trial.
# [11] = foliar spray 125 ppm till runoff, two applications ~14 days apart
# [12] = vs untreated check, 125 ppm foliar, two applications
# [13] = 0.2 mL per 1000 mL water, 50 mL per plant, harvested 14 days later
# [14] = foliar spray 125 ppm till runoff, two treatments ~14 days apart
# [15] = over the untreated check, 125 ppm foliar, two treatments
smiles,measurement,setting,value
CCNC(=O)CC[C@H](N)C(=O)O [L-theanine],Basal Diameter,[1]; [11],3.07 a mm
same,Leaf (count),[1]; [11],8.66 a count
same,Plant Height,[1]; [11],8.67 a in
same,increase in leaf count,[1]; [12],1
same,"increase in leaf count, percent",[1]; [12],13.1%
same,increase in plant height,[1]; [12],1.67 in
same,"increase in plant height, percent",[1]; [12],23.9%
same,"root biomass development and stalk girth (FIG. 1, in words)",[2],increases in root biomass development and stalk girth
same,Yield,"[3]; 20% aqueous solution, foliar, 8 fl. oz./acre at R2 (full flowering)",84.6 a Bushels/Acre
same,increase in yield,[3]; over the untreated control,6.0 bushels per acre
same,"increase in yield, percent",[3]; over the untreated control,7.6%
same,Yield,"[4]; 20% solution, foliar, 8 fl. oz./acre ~40 days after emergence",53.9 a Bushels/Acre
same,increase in yield,[4]; over the untreated control,5.3 bushels/acre
same,"increase in yield, percent",[4]; over the untreated control,10.9%
same,Plant Biomass,[5]; [13],22.19 a g
same,Root Length,[5]; [13],545.5 a cm
same,Root Tips (count),[5]; [13],3178.7 a count
same,increase in plant biomass,[5]; above the untreated check,2.8 g
same,"increase in plant biomass, percent",[5]; above the untreated check,14.5%
same,increase in root length,[5]; above the untreated check,120.9 cm
same,"increase in root length, percent",[5]; above the untreated check,28.5%
same,increase in root tips,[5]; above the untreated check,887
same,"increase in root tips, percent",[5]; above the untreated check,38.7%
same,Plant Biomass,[6]; [13],7.44 a g
same,Root Length,[6]; [13],1631.4 a cm
same,increase in root length,[6]; above the untreated check,66.4 cm
same,"increase in root length, percent",[6]; above the untreated check,4.2%
same,increase in soybean biomass,[6]; above the untreated check,1.3 g
same,"increase in soybean biomass, percent",[6]; above the untreated check,20.4%
same,Basal Diameter,[7]; [14],6.45 a mm
same,Flower (count),[7]; [14],10.17 count
same,Plant Height,[7]; [14],35.83 a cm
same,increase in basal diameter,[7]; [15],1.2 mm
same,"increase in basal diameter, percent",[7]; [15],22.9%
same,increase in flower counts,[7]; [15],6.0
same,"increase in flower counts, percent",[7]; [15],143.9%
same,increase in plant height,[7]; [15],9.66 cm
same,"increase in plant height, percent",[7]; [15],36.9%
same,quality and yield of tea plants (in words),[8],can improve the quality and yield of tea plants by increasing the number of usable leaves
same,"plant productivity, flowering and fruit set (in words)","[9]; 125 ppm foliar, two applications","improved plant productivity, early flowering, and early fruit set"
same,Fruit/Vine (count),[9]; [11],4.25 a count
same,Vine Length,[9]; [11],55.00 a in
same,increase in fruit per vine,[9]; [12],2.75 fruit
same,"increase in fruit per vine, percent",[9]; [12],183.3%
same,increase in vine length,[9]; [12],11.25 in
same,"increase in vine length, percent",[9]; [12],25.7%
same,Yield,"[10]; 10% aqueous solution at 1 pint per acre, Early Bloom, Petal Fall, Early Fruit set",70.3 a Boxes/Acre
same,increase in yield,[10]; over the untreated check,12.8 boxes/acre
same,"increase in yield, percent",[10]; over the untreated check,22.3%
